Experimental data published in a melting point compilation (Tetko et al.; mined from patent text by program, amines drawn as free bases though some values may be those of a salt).

Row | SMILES | melting point
1 | CON1CCC2(CC1)NC(=O)C(c1c(C)cc(C)cc1C)=C2OCc1ccccc1 | 184 to 186 °C
2 | CNC(=S)C1(c2cccc(C)n2)SCCCS1 | 168 °C
3 | O=C(NCC1(c2ccccc2)CCCCC1)Nc1ccc(Cl)cc1 | 164 to 166 °C
4 | COCCOc1ccc(CCC(=O)NS(=O)(=O)c2ccc(Cl)cc2)c(Oc2ncc(C(F)(F)F)cc2Cl)c1 | 140 to 142 °C
5 | COc1cc2c(cc1OC)CCC(C(=O)N1CCN(C(=O)c3ccc(OC)c(OC)c3OC)CC1)=C2 | 166 to 167 °C
6 | CC1CCCC(C)(C)C1CS(=O)(=O)c1ccccc1 (stereo unspecified) | 73 °C
7 | Cc1c(C(=O)O)c(=O)c(Br)c(-c2ccccc2)n1C | 257 to 258 °C
8 | O=C1c2cc(Br)ccc2-n2c1nc1ccccc1c2=O | 288 to 290 °C
9 | CCCCCC/C=C/CCCCCCCC(=O)Nc1nc(CC(=O)O)cs1 | 117 to 118 °C
10 | Cc1ccc(NC(=S)NCc2ccc3c(c2)CN(C2CCC(=O)NC2=O)C3=O)cc1C(F)(F)F (stereo unspecified) | 238 to 240 °C
11 | COCC(OC(C)=O)C1CC(OC(C)=O)C2(C)CCC3C(CCC4CC(=O)CC(C)C43C)C12 (stereo unspecified) | 149 to 150 °C
12 | O=C(O)CCN1CCN(c2ccccc2Cl)CC1 | 210 to 213 °C
13 | N#CN1CCC2(CC1)C(=O)c1cc(Cl)ccc1Sc1ccccc12 | 142 °C
14 | O=C1NC(=O)C(Nc2ccc3ccccc3c2)S1 (stereo unspecified) | 200 to 201 °C
15 | Cc1ccc(NC(=O)Nc2cc(C(C)(C)C)sc2CNC(=O)CN)cc1 | 93 to 96 °C
16 | O=C(O)c1ccc(Cc2cc3cc(C(F)(F)F)ccc3n2S(=O)(=O)c2cccc(C3CC3)c2)cc1 | 147 °C
17 | C#Cc1ccc(C2(C3CCCCCCC3)CCCCCCC2)cc1 | 167 °C
18 | O=C1NCCc2c(-c3cccc(CCO)c3)[nH]c3cccc1c23 | 188 °C
19 | O=C(NNc1ccccc1)c1ccccc1O | 259 °C
20 | CCCC12COC(C=O)(OC1)OC2 | 117 to 118 °C
21 | C[C@H](CSC(=O)c1ccccc1)C(=O)N1CSC[C@H]1C(=O)OCOC(=O)C(C)(C)C | 69 to 69.5 °C
22 | O=C1O[C@H](c2ccccc2)[C@H](c2ccccc2)N[C@H]1Cc1ccccc1C1CCCCC1 | 159 to 160 °C

Row | SMILES | melting point
23 | C[N+]([O-])=C(Cn1ccnc1)c1cccs1 | 162 to 164 °C
24 | CC(C)NC(=O)C(=O)c1ccc(Cl)cc1 | 79 °C
25 | COC(=O)NS(=O)(=O)Oc1c(C(C)C)cccc1C(C)C | 92 to 95 °C
26 | O=C(CN1CCC(Cc2ccccc2)CC1)Nc1cccc(NCc2ccccc2)c1 | 112 to 114 °C
27 | Cc1cc(F)ccc1-c1ccc(S(=O)(=O)N2c3ccccc3CC2C(=O)NCc2ccccc2N)cc1 (stereo unspecified) | 92 to 96 °C
28 | NC(=O)c1cc2c(Oc3ccc(C(=O)NCCN4CCOCC4)cc3)cncc2s1 | 214 to 216 °C
29 | CS(=O)(=O)c1ccc(-c2sc(Nc3ccc(C#N)cc3)nc2-c2ccc(F)cc2)cc1 | 273 to 274 °C
30 | COc1cc(CON=C(CCC(=O)O)c2ccccc2)ccc1OCc1nc(-c2ccccc2)oc1C | 134 to 135 °C
31 | COc1ccc2cc(-c3nc(-c4ccccc4)no3)c(=O)oc2c1 | 215 °C
32 | CC(/C=C/c1c(C)oc(C)c1C)=C\C=C\C(C)=C\C(=O)O | 213 to 214 °C
33 | Cc1cc2c(cc1C)n(C1CCNCC1)c(=O)n2C | 171 to 172 °C
34 | CS(=O)N1CCSc2cccc(Cl)c2C1 (stereo unspecified) | 82 to 84 °C
35 | Cc1nc(C(=O)NN(C)C)c2n1-c1ccc(Cl)cc1C(c1ccccc1F)NC2 (stereo unspecified) | 218 to 219 °C
36 | CS(=O)c1ccc(-n2[nH]c3ccccc3c2=O)cc1 (stereo unspecified) | 208 to 210 °C
37 | O=C1NCC(=O)c2ncn(C3OC(COC(=O)c4ccccc4)C(OC(=O)c4ccccc4)C3OC(=O)c3ccccc3)c2N1 (stereo unspecified) | 252 °C
38 | C=CC[C@H]1C[C@@](OS(C)(=O)=O)(C(=O)OC)C[C@@H](OC(=O)c2ccccc2)[C@@H]1OS(C)(=O)=O | 154 to 155 °C
39 | Cc1cc2nc(NC(=O)C(C)(C)C)[nH]c(=O)c2[nH]1 | 156 to 157 °C
40 | CC(C)(C)c1cc(C(=O)NCCCSc2ccncc2)cc(C(C)(C)C)c1O | 203 to 204 °C
41 | CSc1c(C(Cc2ccc(F)cc2)C(=O)O)ccc2c3ccccc3n(Cc3ccc(F)cc3)c12 (stereo unspecified) | 90 to 94 °C
42 | Cc1cc(NCc2ccc3oc(-c4ccccc4-c4nnn[nH]4)c(Br)c3c2)n2nccc2n1 | > 250 °C
43 | COc1c(N2CC[C@@H](C3(NC(=O)OC(C)(C)C)CCC3)C2)ccc2c(=O)c(C(=O)O)cn([C@@H]3C[C@@H]3F)c12 | 174 °C
44 | CC(C)COC(=O)C(=O)c1csc(N)n1 | 105 to 108 °C

Row | SMILES | melting point
45 | Cc1c(C)c2c(c(C)c1NC(=O)C(C)C)CC(C)(C)O2 | 136 to 138 °C
46 | CC(=O)OC1CSC(Sc2cccc(C#N)c2)C(OC(C)=O)C1OC(C)=O (stereo unspecified) | 133 °C
47 | CC(C)OCCNC(=O)c1n[nH]cc1NC(=O)c1ccccc1 | 121 to 122 °C
48 | O=C(O)c1ccc2[nH]c3c(c2c1)CC(N1C(=O)c2ccccc2C1=O)CC3 (stereo unspecified) | 345 to 348 °C
49 | CC1=NC(NC(=O)Nc2cccc(C)c2)C(=O)N(CC(=O)N2CCC(C(N)=O)CC2)c2c(C)cccc21 (stereo unspecified) | 197 to 198 °C
50 | CC(=O)C(C)(CO)CO | 60 °C
51 | CCOc1ncnc2c1sc1nc(N(C)C)c3c(c12)CC(C)(C)CC3 | 220 to 221 °C
52 | CC(C)N(CCC(CCN(C)C)(C(N)=O)c1ccccc1)C(C)C (stereo unspecified) | 75 to 78 °C
53 | Cn1c(=O)ccc2cc(COc3cc(F)cc(C4(SC(C)(C)C)CCOCC4)c3)ccc21 | 54 to 56 °C
54 | Nc1ncccc1Sc1ccccc1 | 108 to 109 °C
55 | COC(=O)c1cc(OCc2ccc(OCc3nc(-c4ccccc4)oc3C)c(OC)c2)nn1-c1ccccc1 | 143 to 144 °C
56 | CC(=NNc1ccc(C2=NNC(=O)CC2C)cc1)c1cc(O)ccc1O (stereo unspecified) | 279 to 284 °C
57 | O=C1NC(=O)c2c1c(-c1ccccc1Cl)cc1c2c2cc(O)ccc2n1CCS(=O)(=O)c1ncn[nH]1 | 301 to 304 °C
58 | O=C(O)c1ccccc1NCCNc1ccccc1C(=O)O | 248 °C
59 | Clc1cc(CC(Cl)(Cl)Cl)cnc1Cl | 98 to 99 °C
60 | O=C(O)CCc1ccc2c(c1)Cc1ccccc1CO2 | 181 to 183 °C
61 | CS(=O)(=O)c1ccc(-c2[nH]c(C(O)(C(F)(F)F)C(F)(F)F)nc2-c2ccccc2)cc1 | 223 to 225 °C
62 | CC(C)OC(=O)c1cc(NC(=O)c2c(Cl)c(Cl)c(Cl)c(Cl)c2C(=O)O)ccc1Cl | 178 to 179 °C
63 | NC(=S)N1CCN(c2ccc(SC(CCc3ccc(Cl)cc3)Cn3ccnc3)cc2)CC1 (stereo unspecified) | 130 to 133 °C
64 | Oc1cc(N2CCCCC2)c(Cl)cc1CCBr | 115 to 116 °C
65 | Cn1cc(C2=C(c3c4n(c5ccccc35)CCC(CCN)C4)C(=O)NC2=O)c2ccccc21 (stereo unspecified) | 160 to 165 °C

Now from value to molecule:

Row | melting point | SMILES
66 | > 250 °C | CC1CC2=C(OC(NC=N)C2)c2ccc(=O)[nH]c21 (stereo unspecified)
67 | 164 to 166 °C | CCOC(=O)c1cnn(-c2cc(Cl)cc(Cl)c2)c1C(N)=O
68 | 91 °C | COc1c(F)c(F)c(C2=CC(=O)NC2=O)c(F)c1F
69 | 130 °C | CCOP(=O)(OCC)c1ccc2c(c1)[C@@H](n1ccccc1=O)[C@H](O)C(C)(C)O2 (relative stereo)
70 | 219 to 221 °C | CN(C)CCOCC1=Nc2cc(Cl)ccc2S(=O)(=O)N1
71 | 57 to 61 °C | CCOC(=O)CCCCCCOc1ccc(OCc2ccccc2)cc1
72 | 212 to 214 °C | CC1NC(=O)NN=C1c1ccccn1 (stereo unspecified)
73 | 197 to 199 °C | Cc1cc(O)c(N)c([N+](=O)[O-])c1
74 | 177 to 178 °C | COc1ccc(S(=O)(=O)n2c(N)nc3c2c(=O)n(CC2CC2)c(=O)n3CC2CC2)cc1
75 | 73 to 74 °C | CCOP(=O)(Cc1ccc(N)c2ccccc12)OCC
76 | 148 to 150 °C | O=C(O)Cc1cccc2nnsc12
77 | 200 to 201 °C | CSC1=Nc2ccccc2Cc2nccn21
78 | 88 °C | C#CCOc1ccc(C(=O)OC)c(OC)c1
79 | 70 °C | CCOc1ccc(C=O)c(F)c1F
80 | 122 to 123 °C | C=CCc1c(-c2cc(=O)c3c(O)c(CC=C)c(O)c(CC=C)c3o2)ccc(OC)c1O
81 | 180 °C | Nc1nc2ccc(OC(F)(F)F)c([N+](=O)[O-])c2s1
82 | 155 °C | CC1NN(Cc2ccc(Cl)cc2)C(=O)NC1=O (stereo unspecified)
83 | 105 to 108 °C | COc1cc(C(=O)NCCc2cccc(C)c2)cc(OC)c1OC

Row | melting point | SMILES
84 | 118 to 119 °C | Oc1ccc(OCc2ccccc2)c2ccccc12
85 | 88 to 89 °C | COc1cc(CCc2c(C=O)ccc(OC)c2OC)cc(OC)c1
86 | 102 to 106 °C | CCCCCCSC(=S)N1Cc2[nH]c3ccccc3c2CC1CO (stereo unspecified)
87 | 109 to 110 °C | CCOC(=O)c1cnc2cc3c(cc2c1Cl)OCO3
88 | 93 to 95 °C | CCC1CCC(Oc2cc(F)cc(C(=O)Nc3ccc(OCc4ccncc4)c4ccccc34)c2)CC1 (stereo unspecified)
89 | 207 to 208 °C | Cc1noc(NC(=O)N2CCN(c3ccnc(-c4ccc(F)cc4F)n3)CC2)c1C
90 | 171 °C | CCOc1ccc2c(c1)n(-c1ccccn1)c(=O)n2S(=O)(=O)c1ccc(NC(=O)N(CC)CC)cc1OC
91 | 106 to 108 °C | CCOC(=O)N1N=C(c2ccc([N+](=O)[O-])cc2)c2cc(Cl)c(Cl)cc2CC1C (stereo unspecified)
92 | 100 to 102 °C | CCCc1c(OCCCCOc2cccc(Sc3ccc(C(=O)O)cc3)c2)ccc(C(C)=O)c1O
93 | 282 to 285 °C | CC(C)NC1=NS(=O)(=O)c2cc(F)c(Cl)cc2N1
94 | 141 to 142 °C | CCCOc1cc(-c2nc(-c3ccc(C(=O)OC)o3)cs2)ccc1OC
95 | 125 °C | C=CCN1CCN(c2cc(-c3ccccc3)c3ccc(=O)ccn23)CC1
96 | 117 to 118 °C | Fc1ccccc1CNc1nc(Cl)ncc1F
97 | 80 to 81 °C | Cc1ccccc1CCC(=NO)C(=O)C(F)(F)F
98 | 140 to 145 °C | CN(C)CCNc1cc(Cl)nc(-c2ccccc2)n1
99 | 98 to 100 °C | COc1ccccc1C(=O)c1ncccc1C
100 | 134 to 135 °C | CS(=O)(=O)c1ccc(-c2c(F)c(F)c(F)c(F)c2-c2ccc(F)cc2)cc1
101 | 190 to 193 °C | CC(=O)Oc1ccc(C(=O)c2cccc(C(=O)O)c2)cc1
